Where “and” joins values, the source holds several entries; their conditions need not be identical. Equal values may be shown once. Read-outs that look alike come from different tables or passages of the source. Non-standard residues stand in square brackets, D forms with d. Residues, ends and D or L forms follow the SMILES beside them. *: point of attachment. NH(3,5-(CF3)2-benzyl) = FC(F)(F)c1cc(CN*)cc(C(F)(F)F)c1; NMeW = CN[C@@H](Cc1c[nH]c2ccccc12)C(=O)O; Dmt = Cc1cc(O)cc(C)c1C[C@H](N)C(=O)O; NMeF = CN[C@@H](Cc1ccccc1)C(=O)O
Legend:
[1] = target: rNK1 (Rattus norvegicus, UniProt P14600); assay: Radioligand binding assay at rat NK1 receptor
rNK1, sequence (P14600 whole entry): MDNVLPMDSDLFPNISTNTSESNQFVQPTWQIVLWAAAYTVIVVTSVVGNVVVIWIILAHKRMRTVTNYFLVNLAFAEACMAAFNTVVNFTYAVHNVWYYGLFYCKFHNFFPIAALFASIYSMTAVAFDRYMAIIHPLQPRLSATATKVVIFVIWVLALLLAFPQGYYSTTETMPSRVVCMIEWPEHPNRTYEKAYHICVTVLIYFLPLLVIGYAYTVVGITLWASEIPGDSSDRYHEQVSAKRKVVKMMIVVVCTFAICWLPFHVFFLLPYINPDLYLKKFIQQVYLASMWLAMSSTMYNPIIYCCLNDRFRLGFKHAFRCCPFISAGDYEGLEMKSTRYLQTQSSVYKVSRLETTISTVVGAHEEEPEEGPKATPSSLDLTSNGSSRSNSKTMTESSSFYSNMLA
Description: (§1) Binding affinities of these ligands were measured on radioligand binding assays. […] ([43]).

[2] = target: T1, hNK1 (Homo sapiens, UniProt P25103); assay: hNK1/CHO cell membrane radioligand binding assay ([3H]SP); details: for Ki: hNK1/CHO membranes, [3H]SP; for Ki^hNK1/Ki^rNK1: ratio human/rat NK1
T1 construct: expressed in transfected cells; host or cells: CHO
T1 sequence (P25103 whole entry): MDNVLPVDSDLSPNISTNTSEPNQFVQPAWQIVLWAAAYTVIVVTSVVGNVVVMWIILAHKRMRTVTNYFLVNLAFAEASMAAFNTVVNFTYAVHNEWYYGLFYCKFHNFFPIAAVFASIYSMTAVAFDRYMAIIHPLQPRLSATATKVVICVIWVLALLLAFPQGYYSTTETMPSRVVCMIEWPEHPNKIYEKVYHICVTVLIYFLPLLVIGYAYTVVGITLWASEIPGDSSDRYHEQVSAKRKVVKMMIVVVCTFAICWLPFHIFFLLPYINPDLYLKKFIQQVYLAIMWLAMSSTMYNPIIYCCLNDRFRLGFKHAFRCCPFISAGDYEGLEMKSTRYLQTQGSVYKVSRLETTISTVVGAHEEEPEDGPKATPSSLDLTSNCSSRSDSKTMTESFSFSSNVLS

[3] = target: DOR (Homo sapiens, UniProt P41143); assay: Radioligand binding assay at δ opioid receptor; details: for Ki: Ki^δ (nM)
DOR (Homo sapiens, UniProt P41143), sequence (P41143 whole entry): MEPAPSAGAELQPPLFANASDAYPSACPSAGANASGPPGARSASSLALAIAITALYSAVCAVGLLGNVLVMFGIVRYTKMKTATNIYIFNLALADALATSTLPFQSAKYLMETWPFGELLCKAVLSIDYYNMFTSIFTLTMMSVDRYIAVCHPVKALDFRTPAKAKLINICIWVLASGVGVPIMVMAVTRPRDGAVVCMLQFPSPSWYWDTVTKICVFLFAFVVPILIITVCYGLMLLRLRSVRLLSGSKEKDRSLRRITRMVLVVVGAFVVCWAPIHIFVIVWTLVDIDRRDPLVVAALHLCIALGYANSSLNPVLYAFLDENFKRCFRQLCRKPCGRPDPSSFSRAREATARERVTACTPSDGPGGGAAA
Description: as §1

[4] = target: MOR; assay: Radioligand binding assay at μ opioid receptor; details: for Log[IC50±] (μ): log IC50 ± error; for Ki^μ/Ki^δ: ratio of binding affinities MOR/DOR
Description: as §1

[5] = target: T2, DOR (Mus musculus, UniProt P32300); assay: Mouse isolated vas deferens (MVD) functional assay; format: cell-based
T2 construct: Male ICR mice under CO2 anesthesia were sacrificed by cervical dislocation and the vasa differentia removed; from tissue; host or cells: mouse vas deferens (ICR mice)
T2 sequence (P32300 whole entry): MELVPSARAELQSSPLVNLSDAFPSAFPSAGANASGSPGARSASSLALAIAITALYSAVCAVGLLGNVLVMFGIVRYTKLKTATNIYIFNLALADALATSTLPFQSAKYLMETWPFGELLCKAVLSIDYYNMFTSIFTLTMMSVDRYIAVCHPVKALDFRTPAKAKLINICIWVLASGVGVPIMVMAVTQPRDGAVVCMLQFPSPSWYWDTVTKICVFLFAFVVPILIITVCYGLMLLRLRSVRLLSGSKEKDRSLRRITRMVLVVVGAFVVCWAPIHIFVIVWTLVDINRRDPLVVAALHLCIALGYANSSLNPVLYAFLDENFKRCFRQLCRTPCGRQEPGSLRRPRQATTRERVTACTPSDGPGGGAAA

[6] = target: T3, NK1R (Cavia porcellus, UniProt P30547); assay: GPI/LMMP functional assay at NK1R (agonist and antagonist testing); format: cell-based, guinea pig; details: for GPI/LMMP (NK1R) Agonist: agonist activity at the concentration in the cell
T3 construct: The longitudinal muscle with myenteric plexus (LMMP) was carefully separated from the circular muscle; from tissue; host or cells: guinea pig ileum longitudinal muscle with myenteric plexus
T3 sequence (P30547 whole entry): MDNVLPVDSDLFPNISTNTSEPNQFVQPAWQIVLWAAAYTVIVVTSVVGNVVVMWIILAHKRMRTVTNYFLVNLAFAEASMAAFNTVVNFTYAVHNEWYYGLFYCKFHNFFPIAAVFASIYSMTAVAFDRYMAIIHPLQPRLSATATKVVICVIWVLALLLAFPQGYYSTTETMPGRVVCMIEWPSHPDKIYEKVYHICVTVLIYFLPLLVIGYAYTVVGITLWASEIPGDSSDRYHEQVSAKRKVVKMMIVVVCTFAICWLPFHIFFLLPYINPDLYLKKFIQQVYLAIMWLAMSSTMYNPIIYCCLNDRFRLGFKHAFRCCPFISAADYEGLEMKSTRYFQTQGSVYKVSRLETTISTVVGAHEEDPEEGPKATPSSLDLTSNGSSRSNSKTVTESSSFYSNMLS

[7] = system: MOR; assay: Guinea pig isolated ileum (GPI) functional assay; format: cell-based
[8] = agonist activity, electrically stimulated tissue, read-out: GPI (MOR) IC50
[9] = MVD (DOR) IC50 (nM), agonist activity, electrically stimulated tissue
[10] = GPI/LMMP (NK1R) Ke (nM) ± S.E.M., antagonist activity

CC(C)C[C@H](NC(=O)[C@@H]1CCCN1C(=O)[C@H](Cc1ccccc1)N(C)C(=O)[C@H](Cc1c[nH]c2ccccc12)N(C)C(=O)[C@@H]1CCCN1C(=O)[C@@H](N)Cc1ccc(O)cc1)C(=O)N[C@@H](Cc1c[nH]c2ccccc12)C(=O)NCc1cc(C(F)(F)F)cc(C(F)(F)F)c1 [AKG225, H-Tyr-Pro-NMeTrp-NMePhe-Pro-Leu-Trp-NH-Bn(3′,5′-(CF3)2)] (H-YP[NMeW][NMeF]PLW-{NH(3,5-(CF3)2-benzyl)})
Ki ([1]; Ki^rNK1 (nM)): 302 ± 78.5 nM
Ki ([2]; Ki^hNK1 (nM)): 14.8 ± 1.4 nM
Ki^hNK1/Ki^rNK1 [2]: 1/20

CC(C)C[C@H](NC(=O)[C@@H]1CCCN1C(=O)CNC(=O)[C@H](CCC(N)=O)NC(=O)[C@H](Cc1ccccc1)N(C)C(=O)CNC(=O)[C@@H](C)NC(=O)[C@@H](N)Cc1ccc(O)cc1)C(=O)N[C@@H](Cc1c[nH]c2ccccc12)C(=O)NCc1cc(C(F)(F)F)cc(C(F)(F)F)c1 [AKG-SK-145] (H-Y[dA]G[NMeF]QGPLW-{NH(3,5-(CF3)2-benzyl)})
IC50 [3]: 14.5 nM
Ki [3]: 6 nM
Ki [4]: 2 nM
Log[IC50±] (μ) [4]: −8.43 ± 0.08
Ki^μ/Ki^δ [4]: 1/3
Ki ([1]; Ki^rNK1 (nM)): 120 nM and 125 nM
Ki ([2]; Ki^hNK1 (nM)): 7.5 nM
Ki^hNK1/Ki^rNK1 [2]: 1/16

CC(C)C[C@H](NC(=O)[C@@H]1CCCN1C(=O)[C@H](Cc1ccccc1)N(C)C(=O)[C@H](Cc1c[nH]c2ccccc12)NC(=O)[C@@H]1CCCN1C(=O)[C@@H](N)Cc1ccc(O)cc1)C(=O)N[C@@H](Cc1c[nH]c2ccccc12)C(=O)NCc1cc(C(F)(F)F)cc(C(F)(F)F)c1 [AKG223, H-Tyr-Pro-Trp-NMePhe-Pro-Leu-Trp-NH-Bn(3′,5′-(CF3)2)] (H-YPW[NMeF]PLW-{NH(3,5-(CF3)2-benzyl)})
Ki ([1]; Ki^rNK1 (nM)): 10.1 ± 6.3 nM
Ki ([2]; Ki^hNK1 (nM)): 3.59 ± 0.3 nM

CSCC[C@H](NC(=O)[C@H](Cc1ccccc1)NC(=O)CNC(=O)[C@@H](C)NC(=O)[C@@H](N)Cc1ccc(O)cc1)C(=O)N1CCC[C@H]1C(=O)N[C@@H](CC(C)C)C(=O)N[C@@H](Cc1c[nH]c2ccccc12)C(=O)NCc1cc(C(F)(F)F)cc(C(F)(F)F)c1 [TY027, H-Tyr-D-Ala-Gly-Phe-Met-Pro-Leu-Trp-NH-Bn(3′,5′-(CF3)2), reference compound]
Ki ([1]; Ki^rNK1 (nM)): 10 nM and 14 nM
Ki ([2]; Ki^hNK1 (nM)): 1.5 nM and 2 nM

CC(C)C[C@H](NC(=O)[C@@H]1CCCN1C(=O)[C@H](Cc1ccccc1)NC(=O)CNC(=O)[C@@H](C)NC(=O)[C@@H](N)Cc1ccc(O)cc1)C(=O)N[C@@H](Cc1c[nH]c2ccccc12)C(=O)NCc1cc(C(F)(F)F)cc(C(F)(F)F)c1 [TY012, reference compound]
Log[IC50±] (μ) [4]: −7.7 ± 0.21
Ki ([1]; read-out: Ki^rNK1): 33 nM
Ki ([2]; read-out: Ki^hNK1): 0.61 nM

Cc1cc(O)cc(C)c1C[C@H](N)C(=O)N[C@H](C)C(=O)N(C)CC(=O)N(C)[C@@H](Cc1ccccc1)C(=O)N1CCC[C@H]1C(=O)N[C@@H](CC(C)C)C(=O)N[C@@H](Cc1c[nH]c2ccccc12)C(=O)NCc1cc(C(F)(F)F)cc(C(F)(F)F)c1 [AKG182, H-Dmt-D-Ala-NMeGly-NMePhe-Pro-Leu-Trp-NH-Bn(3′,5′-(CF3)2)]
Ki ([1]; Ki^rNK1 (nM)): 110 ± 18.3 nM
Ki^hNK1/Ki^rNK1 [2]: 1/22

CC(C)C[C@H](NC(=O)[C@@H]1CCCN1C(=O)Cc1ccc(NC(=O)[C@H](Cc2ccccc2)N(C)C(=O)CNC(=O)[C@@H](C)NC(=O)[C@@H](N)Cc2ccc(O)cc2)cc1)C(=O)N[C@@H](Cc1c[nH]c2ccccc12)C(=O)NCc1cc(C(F)(F)F)cc(C(F)(F)F)c1 [AKG177, H-Tyr-D-Ala-Gly-NMePhe-4-Apac-Pro-Leu-Trp-NH-Bn(3′,5′-(CF3)2)]
IC50 [3]: 148 nM
Ki [3]: 70 nM
IC50 [5]: 35 ± 7.89 nM
Ki [4]: 1 nM
Log[IC50±] (μ) [4]: −8.68 ± 0.19
Ki^μ/Ki^δ [4]: 1/70
Ki^hNK1/Ki^rNK1 [2]: 1/14
Kb [6]: 39.2 ± 7.9 nM
GPI/LMMP (NK1R) Agonist [6]: None at 100 nM
GPI/MVD IC50 ratio [7]: 1/1
IC50 [7, 8]: 41 nM and 40.8 nM

CC(C)C[C@H](NC(=O)[C@@H]1CCCN1C(=O)[C@@H](CO)NC(=O)[C@H](Cc1ccccc1)NC(=O)CNC(=O)[C@@H](C)NC(=O)[C@@H](N)Cc1ccc(O)cc1)C(=O)N[C@@H](Cc1c[nH]c2ccccc12)C(=O)NCc1cc(C(F)(F)F)cc(C(F)(F)F)c1 [AKG101]
IC50 [3]: 74.1 nM
IC50 [5, 9]: 6.7 nM and 6.72 nM
Ki [4]: 200 nM
Log[IC50±] (μ) [4]: −6.35 ± 0.26
Ki^μ/Ki^δ [4]: 6/1
Ki ([1]; Ki^rNK1 (nM)): 110 nM
Ki ([2]; Ki^hNK1 (nM)): 3 nM
Ki^hNK1/Ki^rNK1 [2]: 1/39
Kb [6, 10]: 28 ± 11.8 nM
GPI/LMMP (NK1R) Agonist [6]: None at 100 nM

CC(C)C[C@H](NC(=O)[C@@H]1CCCN1C(=O)[C@H](CCC(N)=O)NC(=O)[C@H](Cc1ccccc1)NC(=O)CNC(=O)[C@@H](C)NC(=O)[C@@H](N)Cc1ccc(O)cc1)C(=O)N[C@@H](Cc1c[nH]c2ccccc12)C(=O)NCc1cc(C(F)(F)F)cc(C(F)(F)F)c1 [AKG105]
IC50 [3]: 20.4 nM
Ki [3]: 9 nM
Log[IC50±] (μ) [4]: −7.06 ± 0.18
Ki ([1]; Ki^rNK1 (nM)): 12 nM
Ki ([2]; Ki^hNK1 (nM)): 1 nM

Cc1cc(O)cc(C)c1C[C@H](N)C(=O)N[C@H](C)C(=O)NCC(=O)N(C)[C@@H](Cc1ccccc1)C(=O)N[C@@H](CCC(N)=O)C(=O)NCC(=O)N1CCC[C@H]1C(=O)N[C@@H](CC(C)C)C(=O)N[C@@H](Cc1c[nH]c2ccccc12)C(=O)NCc1cc(C(F)(F)F)cc(C(F)(F)F)c1 [AKG-SK-146] (H-[Dmt][dA]G[NMeF]QGPLW-{NH(3,5-(CF3)2-benzyl)}; N-terminus assumed)
IC50 [3]: 1.41 nM
Ki [3]: 0.6 nM
Ki [4]: 0.6 nM
Log[IC50±] (μ) [4]: −8.94 ± 0.17
Ki^μ/Ki^δ [4]: 1/1
Ki ([1]; Ki^rNK1 (nM)): 78.6 ± 9.8 nM
Ki ([2]; Ki^hNK1 (nM)): 6.37 ± 1.54 nM
Ki^hNK1/Ki^rNK1 [2]: 1/15

CC(C)C[C@H](NC(=O)[C@@H]1CCCN1C(=O)[C@H](CC(N)=O)NC(=O)[C@H](Cc1ccccc1)NC(=O)CNC(=O)[C@@H](C)NC(=O)[C@@H](N)Cc1ccc(O)cc1)C(=O)N[C@@H](Cc1c[nH]c2ccccc12)C(=O)NCc1cc(C(F)(F)F)cc(C(F)(F)F)c1 [AKG104]
IC50 [3]: 37.2 nM
Ki [3]: 17 nM
Log[IC50±] (μ) [4]: −6.93 ± 0.05
Ki^μ/Ki^δ [4]: 3/1
Ki ([1]; Ki^rNK1 (nM)): 20 nM

CC(C)C[C@H](NC(=O)[C@@H]1CCCN1C(=O)[C@H](CO)NC(=O)[C@H](Cc1ccccc1)N(C)C(=O)CNC(=O)[C@@H](C)NC(=O)[C@@H](N)Cc1ccc(O)cc1)C(=O)N[C@@H](Cc1c[nH]c2ccccc12)C(=O)NCc1cc(C(F)(F)F)cc(C(F)(F)F)c1 [AKG126] (H-Y[dA]G[NMeF]SPLW-{NH(3,5-(CF3)2-benzyl)})
IC50 [3]: 148 nM
higher agonist activity at DOR compared to MOR (functional assays) [5]: 9 times
IC50 [5, 9]: 25.9 ± 6.69 nM
Ki [4]: 2 nM
binding selectivity for MOR over DOR [4]: 31 times
Log[IC50±] (μ) [4]: −8.30 ± 0.11
Ki^μ/Ki^δ [4]: 1/31
Ki ([2]; Ki^hNK1 (nM)): 1 nM
Ki^hNK1/Ki^rNK1 [2]: 1/37
Kb [6, 10]: 17 nM and 16.5 nM
GPI/LMMP (NK1R) Agonist [6]: None at 30 nM
GPI/MVD IC50 ratio [7]: 9/1
IC50 [7, 8]: 240 nM
IC50 ([7]; head of Table IX, read-out: GPI (MOR) ID50): 237 ± 29.2 nM

CC(C)C[C@H](NC(=O)[C@@H]1CCCN1C(=O)CCCCCNC(=O)[C@H](Cc1ccccc1)N(C)C(=O)CNC(=O)[C@@H](C)NC(=O)[C@@H](N)Cc1ccc(O)cc1)C(=O)N[C@@H](Cc1c[nH]c2ccccc12)C(=O)NCc1cc(C(F)(F)F)cc(C(F)(F)F)c1 [AKG124, H-Tyr-D-Ala-Gly-NMePhe-[4]6-Ahx-Pro-Leu-Trp-NH-Bn(3′,5′-(CF3)2)]
IC50 [3]: 72.4 nM
IC50 [5]: 36.8 ± 13.6 nM
Ki [4]: 7 nM
Log[IC50±] (μ) [4]: −7.80 ± 0.09
Ki^hNK1/Ki^rNK1 [2]: 1/36
Kb [6]: 11.2 ± 3.1 nM
GPI/LMMP (NK1R) Agonist [6]: None at 100 nM
GPI/MVD IC50 ratio [7]: 7/1
IC50 [7, 8]: 255 ± 71.2 nM

CC(C)C[C@H](NC(=O)[C@@H]1CCCN1C(=O)[C@H](Cc1ccccc1)NC(=O)[C@H](Cc1c[nH]c2ccccc12)NC(=O)[C@@H]1CCCN1C(=O)[C@@H](N)Cc1ccc(O)cc1)C(=O)N[C@@H](Cc1c[nH]c2ccccc12)C(=O)NCc1cc(C(F)(F)F)cc(C(F)(F)F)c1 [AKG221, H-Tyr-Pro-Trp-Phe-Pro-Leu-Trp-NH-Bn(3′,5′-(CF3)2)] (H-YPWFPLW-{NH(3,5-(CF3)2-benzyl)})
Ki ([1]; Ki^rNK1 (nM)): 38.5 ± 3.6 nM
Ki ([2]; Ki^hNK1 (nM)): 3.34 ± 0.32 nM

Cc1cc(O)cc(C)c1C[C@H](N)C(=O)N[C@H](C)C(=O)NCC(=O)N[C@@H](Cc1ccccc1)C(=O)N1CCC[C@H]1C(=O)N[C@@H](CC(C)C)C(=O)N[C@@H](Cc1c[nH]c2ccccc12)C(=O)NCc1cc(C(F)(F)F)cc(C(F)(F)F)c1 [AKG116, H-Dmt-D-Ala-Gly-Phe-Pro-Leu-Trp-NH-Bn(3′,5′-(CF3)2)]
IC50 [3]: 2.19 nM
Ki [3]: 1 nM
higher agonist activity at DOR compared to MOR (functional assays) [5]: 26 times
IC50 [5, 9]: 3.1 nM
Ki [4]: 3 nM
Log[IC50±] (μ) [4]: −8.63 ± 0.04
Ki^μ/Ki^δ [4]: 3/1
Ki ([2]; Ki^hNK1 (nM)): 1.4 nM
Ki^hNK1/Ki^rNK1 [2]: 1/19
GPI/LMMP (NK1R) Agonist [6]: None at 100 nM
Kb ([6]; antagonist activity, read-out: GPI/LMMP (NK1R) Ke (nM) ± S.E.M.): 25 nM and 24.9 nM
GPI/MVD IC50 ratio [7]: 26/1
IC50 [7, 8]: 80.8 nM
